Test results: patent US6838414B2, “Substituted aryl sulphonyl(thio)ureas used as herbicides” (Bayer Aktiengesellschaft, priority 1996, dated 2005)

Legend:
Format in all cases: in vivo
weeds [1] = experiment: Pre-emergence test (overall statement); details: application rates between 30 g and 125 g of a.i. per hectare
Procedure: (§1) To produce a suitable preparation of active compound, 1 part by weight of active compound is mixed with the stated amount of solvent, the stated amount of emulsifier is added and the concentrate is diluted with water to the desired concentration.
(§2) Seeds of the test plants are sown in normal soil. After about 24 hours, the soil is sprayed with the preparation of the active compound. Advantageously, the amount of water per unit area is kept constant. The active compound concentration in the preparation is not important, only the active compound application rate per unit area is critical.
(§3) After three weeks, the degree of damage to the plants is rated in % damage in comparison with the development of the untreated control.
(§4) The figures denote: • 0%=no effect (like untreated control) • 100%=total destruction

Alopecurus [2] = experiment: Pre-emergence test/greenhouse; details: after three weeks
Procedure: as §1, §2, §3, §4

Stellaria = experiment: Pre-emergence test/greenhouse; details: after three weeks
Procedure: as §1, §2, §3, §4

Amaranthus = experiment: Pre-emergence test/greenhouse; details: after three weeks
Procedure: as §1, §2, §3, §4

Chenopodium = experiment: Pre-emergence test/greenhouse; details: after three weeks
Procedure: as §1, §2, §3, §4

Lolium = experiment: Pre-emergence test/greenhouse; details: after three weeks
Procedure: as §1, §2, §3, §4

Sorghum = experiment: Pre-emergence test/greenhouse; details: after three weeks
Procedure: as §1, §2, §3, §4

Alopecurus [3] = experiment: Post-emergence test/greenhouse; details: rated after three weeks vs untreated control
Procedure: as §1
(§5) Test plants which have a height of 5-15 cm are sprayed with the preparation of the active compound in such a way as to apply the particular amounts of active compound desired per unit area. The concentration of the spray liquor is chosen so that the amounts of active compound desired in each case are applied in 1000 l of water/ha.
as §3, §4

Abutilon = experiment: Post-emergence test/greenhouse; details: rated after three weeks vs untreated control
Procedure: as §1, §5, §3, §4

Matricaria = experiment: Post-emergence test/greenhouse; details: rated after three weeks vs untreated control
Procedure: as §1, §5, §3, §4

weeds [4] = experiment: Post-emergence test/greenhouse
Procedure: as §1, §5, §3, §4

Echinochloa = experiment: Post-emergence test/greenhouse; details: rated after three weeks vs untreated control
Procedure: as §1, §5, §3, §4

[5] = application rate 30 g of ai./ha
[6] = application rate 60 g of ai./ha
[7] = application rate 125 g of ai./ha

Compound | activity against weeds (weeds [1]) | Alopecurus, % damage (Alopecurus [2]; 60 g of ai./ha) [%] | Steltaria, % damage (Stellaria; 60 g of ai./ha) [%] | Amaranthus, % damage (Amaranthus; 60 g of ai./ha) [%] | Chenopodium, % damage (Chenopodium; 60 g of ai./ha) [%] | Lolium, % damage (Lolium; 60 g of ai./ha) [%] | Sorghum, % damage (Sorghum; 60 g of ai./ha) [%] | degree of damage to the plants, Alopecurus (Alopecurus [3]; [5]) [%] | degree of damage to the plants, Abutilon (Abutilon; [5]) [%] | degree of damage to the plants, Matricaria (Matricaria; [5]) [%] | activity against weeds (weeds [4]) | degree of damage to the plants, Echinochloa (Echinochloa; [5]) [%] | Alopecurus, % damage (Alopecurus [2]; 30 g of ai./ha) [%] | Steltaria, % damage (Stellaria; 30 g of ai./ha) [%] | Chenopodium, % damage (Chenopodium; 30 g of ai./ha) [%] | Sorghum, % damage (Sorghum; 30 g of ai./ha) [%] | also measured
CCOc1cccc(C(F)(F)F)c1S(=O)(=O)NC(=O)Nc1nc(C)nc(OC)n1 [Example 4] | very strong activity against weeds | 100 | 95 | 100 | 100 | 100 | 100 | 90 | 100 | 100 | very strong activity against weeds | 90 |  |  |  |  | 
COc1nc(C)nc(NC(=O)NS(=O)(=O)c2c(OC)cccc2C(F)(F)F)n1 [Example 5] | very strong activity against weeds | 100 | 100 | 100 | 100 | 100 | 100 | 80 | 100 | 100 | very strong activity against weeds | 100 |  |  |  |  | 
COc1nc(NC(=O)NS(=O)(=O)c2c(OC)cccc2C(F)(F)F)nc(OC)n1 [Example 6] | very strong activity against weeds | 100 | 100 | 100 | 100 | 100 | 100 | 60 | 90 | 100 | very strong activity against weeds | 100 |  |  |  |  | 
CCOc1cccc(C(F)(F)F)c1S(=O)(=O)NC(=O)Nc1nc(C)cc(C)n1 [Example 8] | very strong activity against weeds |  |  |  |  |  |  | 80 | 90 | 100 | very strong activity against weeds | 90 | 100 | 90 | 80 | 100 | Lolium, % damage (Lolium; 30 g of ai./ha): 100%
CCCOc1cccc(C(F)(F)F)c1S(=O)(=O)NC(=O)Nc1nc(OC)nc(OC)n1 [Example 10] | very strong activity against weeds | 100 | 100 | 100 | 100 | 100 | 100 |  |  |  |  |  |  |  |  |  | 
CCCOc1cccc(C(F)(F)F)c1S(=O)(=O)NC(=O)Nc1nc(C)cc(C)n1 [Example 11] | very strong activity against weeds | 100 | 95 | 100 | 100 | 100 | 100 |  |  |  |  |  |  |  |  |  | 
COc1nc(NC(=O)NS(=O)(=O)c2c(OC(C)C)cccc2C(F)(F)F)nc(OC)n1 [Example 13] | very strong activity against weeds | 100 | 100 | 100 | 100 | 100 | 100 |  |  |  |  |  |  |  |  |  | 
Cc1cc(C)nc(NC(=O)NS(=O)(=O)c2c(OC(C)C)cccc2C(F)(F)F)n1 [Example 14] | very strong activity against weeds |  |  |  |  |  |  |  |  |  |  |  | 100 | 95 | 95 | 95 | Lolium, % damage (Lolium; 30 g of ai./ha): 100%
CCOc1cccc(C(F)(F)F)c1S(=O)(=O)NC(=O)Nc1nc(Cl)cc(OC)n1 [Example 16] | very strong activity against weeds |  |  |  |  |  |  | 70 | 100 | 100 | very strong activity against weeds | 70 | 100 | 90 | 100 | 80 | 
CCCOc1cccc(C(F)(F)F)c1S(=O)(=O)NC(=O)Nc1nc(Cl)cc(OC)n1 [Example 17] |  |  |  |  |  |  |  |  | 90 | 95 | very strong activity against weeds | 70 |  |  |  |  | 
COc1cc(OC)nc(NC(=O)NS(=O)(=O)c2c(OC)cccc2C(F)(F)F)n1 [Example 22] | very strong activity against weeds |  |  |  |  |  |  | 60 | 95 | 95 | very strong activity against weeds | 80 | 100 | 100 | 100 | 95 | Amaranthus, % damage (Amaranthus; 30 g of ai./ha): 100%
CCOc1cccc(C(F)(F)F)c1S(=O)(=O)NC(=O)Nc1nc(OC)cc(OC)n1 [Example 23] |  |  |  |  |  |  |  | 60 | 95 | 95 | very strong activity against weeds | 70 |  |  |  |  | 
CCCOc1cccc(C(F)(F)F)c1S(=O)(=O)NC(=O)Nc1nc(OC)cc(OC)n1 [Example 24] |  |  |  |  |  |  |  | 60 | 95 | 95 | very strong activity against weeds | 70 |  |  |  |  | 
COc1cc(OC)nc(NC(=O)NS(=O)(=O)c2c(OC(C)C)cccc2C(F)(F)F)n1 [Example 25] |  |  |  |  |  |  |  | 60 | 95 | 90 | very strong activity against weeds | 70 |  |  |  |  | 
COc1cc(C)nc(NC(=O)NS(=O)(=O)c2c(C)cccc2OC(C)C)n1 [Example 33] | very strong activity against weeds |  |  |  |  |  |  |  |  |  |  |  | 100 | 90 | 70 | 100 | Lolium, % damage (Lolium; 30 g of ai./ha): 95%
C#CCOc1cccc(C)c1S(=O)(=O)NC(=O)Nc1nc(OC)cc(OC)n1 [Example 34] | very strong activity against weeds |  |  |  |  |  |  | 60 | 90 | 90 | very strong activity against weeds | 80 | 100 | 90 | 90 | 90 | 
CCCOc1cccc(C)c1S(=O)(=O)NC(=O)Nc1nc(C)cc(OC)n1 [Example 46] | very strong activity against weeds | 100 | 80 | 90 | 100 | 90 | 100 |  |  |  |  |  |  |  |  |  | 
CCOc1cccc(C(C)C)c1S(=O)(=O)NC(=O)Nc1nc(OC)nc(OC)n1 [Example 51] |  |  |  |  |  |  |  |  |  |  | very strong activity against weeds |  |  |  |  |  | degree of damage to the plants, Alopecurus (Alopecurus [3]; [6]): 80%; degree of damage to the plants, Abutilon (Abutilon; [6]): 100%; degree of damage to the plants, Matricaria (Matricaria; [6]): 90%; degree of damage to the plants, Echinochloa (Echinochloa; [6]): 90%
COc1nc(C)nc(NC(=O)NS(=O)(=O)c2c(C)cccc2OC2CCCC2)n1 [Example 56] | very strong activity against weeds | 100 | 100 | 100 | 100 | 100 | 90 |  |  |  |  |  |  |  |  |  | 
COc1cc(OC)nc(NC(=O)NS(=O)(=O)c2c(C)cccc2OC(F)F)n1 [Example 65] | very strong activity against weeds |  |  |  |  |  |  |  |  |  | very strong activity against weeds |  |  |  |  |  | Alopecurus, % damage (Alopecurus [2]; 125 g of ai./ha): 95%; Steltaria, % damage (Stellaria; 125 g of ai./ha): 95%; Amaranthus, % damage (Amaranthus; 125 g of ai./ha): 95%; Chenopodium, % damage (Chenopodium; 125 g of ai./ha): 95%; Lolium, % damage (Lolium; 125 g of ai./ha): 70%; degree of damage to the plants, Alopecurus (Alopecurus [3]; [7]): 90%; degree of damage to the plants, Abutilon (Abutilon; [7]): 100%; degree of damage to the plants, Matricaria (Matricaria; [7]): 100%; degree of damage to the plants, Echinochloa (Echinochloa; [7]): 90%
